In patent US20230357271A1, “MACROCYCLIC COMPOUND” (Asahi Kasei Pharma Corporation, priority 2020, published 2023):

Assays:
human IRAK-4 = human IRAK-4 (Homo sapiens (Human), UniProt Q9NWZ3); experiment: Measurement of human IRAK-4 inhibitory activity (TR-FRET); type: biochemical; details: 1 nM IRAK-4, 0.5 µM peptide substrate, 10 µM ATP, 23° C., 30 minutes
Protocol: For the measurement of the activity of the human IRAK-4 (Invitrogen, Cat. PV3362), phosphorylation of the IRAK-4 peptide substrate (biotin-KKKKRFSFKKSFKC) by the enzyme in the presence of 10 µM ATP (Sigma-Aldrich, Cat. A7699) was measured by the TR-FRET method. The enzymatic reaction was performed in a reaction buffer containing 50 mM HEPES (pH 7.2), 1 mM DTT, 0.1 mM Na3VO4, 5 mM MgCl2, 1 mM MnCl2, and 0.1% bovine serum albumin. For the measurement of the IRAK-4 inhibitory activity, a test compound was added to the reaction buffer containing 1 nM IRAK-4, 0.5 µM peptide substrate, and 10 µM ATP, and the mixture was incubated at 23° C. for 30 minutes. Then, a detection solution containing an antibody labeled with europium cryptate (0.3 µg/mL, the antibody was prepared by using the IRAK-4 peptide substrate as the antigen), streptavidin-XL665 (2 µg/mL, CisBio, Cat. 610SAXLB), 50 mM HEPES (pH 7.2), 0.1% BSA, 120 mM KF, and 66.7 mM EDTA (all the concentrations of the reagents are final concentrations) was added to terminate the reaction, and then the mixture was further incubated at 23° C. for 60 minutes. Fluorescence intensity was measured at wavelengths of 665 nm and 620 nm with a microplate reader, and the enzymatic activity was calculated as the ratio of fluorescence intensities at 665 nm and 620 nm (665 nm/620 nm).
When the measurement was performed in multiplicate, the results are represented with average values.

[1] = tested on: human acute monocytic leukemia cell strain THP-1; experiment: LPS-stimulated TNFα production inhibition test using THP-1 cells; type: cell-based; details: LPS 2.5 ng/mL, TNFα by HTRF
Protocol: By the THP-1 assay, influence of a test compound on the TNFα production induced by LPS stimulation can be evaluated. The THP-1 cells (ATCC, Cat. TIB-202) were inoculated on a 96-well plate at a density of 1 × 10^5 cells/160 µL/well, a test compound was added in a volume of 20 µL, and the plate was incubated at 37° C. for 1 hour in a 5% CO2 incubator. Then, LPS in a volume of 20 µL (final concentration 2.5 ng/mL, Sigma, Cat. L2630) was added, and the plate was further incubated for 4 hours. After the incubation, the plate was centrifuged, and 100 µL of the supernatant was taken from each well, and used for evaluation of the amount of TNFα using HTRF (Cisbio, Cat. 62TNFPEB). In the measurement of the amount of TNFα, the supernatant was diluted twice with the medium, and then added to wells of a 384-well plate in a volume of 10 µL, then anti-TNFα-cryptate (5 µL), and anti-TNFα-XL665 (5 µL) were added, and the plate was left standing overnight. The fluorescence intensity ratio for the wavelengths of 620 and 665 nm (620 nm/665 nm) was measured with a microplate reader, and the amount of TNFα in the supernatant was calculated by using a calibration curve. The TNFα production suppression ratio observed with no addition of LPS was defined to be 100%, the TNFα production suppression ratio observed with no addition of the test compound was defined to be 0%, and IC50 of the test compound was calculated by using the 4-parameter logistic model of the data analysis software XLfit (ID Business Solutions Ltd.).
When the measurement was performed in multiplicate, the results are represented with average values. The values were rounded to the fourth decimal place.

human IRAK-4, sequence (Q9NWZ3 whole entry): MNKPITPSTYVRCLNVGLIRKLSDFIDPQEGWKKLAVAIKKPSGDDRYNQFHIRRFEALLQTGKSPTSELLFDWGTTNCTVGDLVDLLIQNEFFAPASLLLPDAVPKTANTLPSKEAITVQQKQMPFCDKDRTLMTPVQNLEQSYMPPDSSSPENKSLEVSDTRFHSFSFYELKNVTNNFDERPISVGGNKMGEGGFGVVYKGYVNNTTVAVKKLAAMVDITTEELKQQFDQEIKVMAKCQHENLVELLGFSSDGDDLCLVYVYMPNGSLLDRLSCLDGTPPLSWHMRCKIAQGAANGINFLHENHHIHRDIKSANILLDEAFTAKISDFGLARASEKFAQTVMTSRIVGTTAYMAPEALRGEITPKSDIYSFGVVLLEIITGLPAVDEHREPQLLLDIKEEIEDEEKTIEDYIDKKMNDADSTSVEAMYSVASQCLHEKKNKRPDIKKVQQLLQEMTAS

SMILES	IC50 (human IRAK-4) [nM]	IC50 ([1]; Homo sapiens, THP-1, 4 h) [µM]	IC50 ([1]; 4 hours) [µM]
Cc1ncc(-c2ccc3ncc4cc3c2/C=C/CCNC(=O)[C@@H]2CC(CC(C)N2C)N4)cn1 (stereo in doubt) [a-02-17, (3^2S,E)-3^1,3^6-Dimethyl-1^6-(2-methylpyrimidin-S-yl)-2,5-diaza-1 (3,5)-qunolina-3(4,2)-piperidinacyclononaphan-8-en-4-one]	1.76	0.066	
CN1CC[C@H]2C[C@H]1C(=O)NCCCOc1c(-c3ccns3)ccc3ncc(nc13)N2 [a-01-01]	1.63	0.028	
CN1CC[C@H]2C[C@H]1C(=O)NCC1(CC1)COc1c(-c3cnc(CO)s3)ccc3ncc(nc13)N2 [a-01-02]	0.89	0.044	
CN1CC[C@H]2C[C@H]1C(=O)NCC1(CC1)COc1c(-c3cncnc3)ccc3ncc(nc13)N2 [a-01-03]	2.11	0.045	
CCCOCc1ncc(-c2ccc3ncc4nc3c2OCC2(CC2)CNC(=O)[C@@H]2C[C@H](CCN2C)N4)cn1 [a-01-04]	4.24	0.048	
CCCOCc1ncc(-c2ccc3ncc4nc3c2OCC(F)CNC(=O)[C@@H]2C[C@H](CCN2C)N4)cn1 (stereo partly drawn) [a-01-05]	1.37		0.048
CCCOCc1ncc(-c2ccc3ncc4nc3c2OCC(F)COC(=O)[C@@H]2C[C@H](CCN2C)N4)cn1 (stereo partly drawn) [a-01-06]	2.53	0.05	
CCCOCc1ncc(-c2ccc3ncc4nc3c2OCCCNC(=O)[C@@H]2C[C@H](CCN2C)N4)cn1 [a-01-07, (3^2S,3^4S)-3^1-Methyl-1^7-(2-(propoxymethyl)pyrimidin-5-yl)-9-oxa-2,5-diaza-1(2,8)-quinoxalina-3(4,2)-piperidinacyclononaphan-4-one]	1.49	0.057	
CN1CC[C@H]2C[C@H]1C(=O)NCC(F)(F)COc1c(-c3cncnc3)ccc3ncc(nc13)N2 [a-01-08]	1.47	0.063	
CN1CC[C@H]2C[C@H]1C(=O)NCCCOc1c(-c3cncnc3)ccc3ncc(nc13)N2 [a-01-09]	1.28	0.064	
CCCOCc1ncc(-c2ccc3ncc4nc3c2OCCCC2CCCN2C(=O)[C@@H]2C[C@H](CCN2C)N4)cn1 (stereo partly drawn) [a-01-10]	43.4	0.068	
CN1CC[C@H]2C[C@H]1C(=O)NCCCOc1c(-c3cnc(CO)s3)ccc3ncc(nc13)N2 [a-01-11]	0.79	0.073	
CCCOCc1ncc(-c2ccc3ncc4nc3c2OCCC(C)CNC(=O)[C@@H]2C[C@H](CCN2C)N4)cn1 (stereo partly drawn) [a-01-12]	1.75	0.075	
CN1CC[C@H]2C[C@H]1C(=O)NCCCOc1c(-c3cnc(COC4CCC4)nc3)ccc3ncc(nc13)N2 [a-01-13]	2.95	0.076	
CN1CC[C@H]2C[C@H]1C(=O)NCCCOc1c(-c3cnsc3)ccc3ncc(nc13)N2 [a-01-14]	1.73	0.08	
CCCOCc1ncc(-c2ccc3ncc4nc3c2OCCCOC(=O)[C@@H]2C[C@H](CCN2C)N4)cn1 [a-01-15]	2.77	0.081	
CCN1CC[C@H]2C[C@H]1C(=O)NCCCOc1c(-c3cnc(CO)s3)ccc3ncc(nc13)N2 [a-01-16]	1.25	0.092	
CCC(O)COCc1ncc(-c2ccc3ncc4nc3c2OCCCNC(=O)[C@@H]2C[C@H](CCN2C)N4)cn1 (stereo partly drawn) [a-01-17]	3.04	0.099	
CN1CCCOc2c(-c3cnc(CO)s3)ccc3ncc(nc23)N[C@H]2CCN(C)[C@@H](C2)C1=O [a-01-18]	1.84	0.104	
Cc1ncc(-c2ccc3ncc4nc3c2OCC(F)CNC(=O)[C@@H]2C[C@H](CCN2C)N4)cn1 (stereo partly drawn) [a-01-19]	1.6		0.113

SMILES	IC50 (human IRAK-4) [nM]	IC50 ([1]; Homo sapiens, THP-1, 4 h) [µM]	IC50 ([1]; 4 hours) [µM]
Cc1ncc(-c2ccc3ncc4nc3c2OCC(F)COC(=O)[C@@H]2C[C@H](CCN2C)N4)cn1 (stereo partly drawn) [a-01-20]	1.15	0.113	
CN1CC[C@H]2C[C@H]1C(=O)NCCCOc1c(-c3cnc(COCC4CC4)nc3)ccc3ncc(nc13)N2 [a-01-21]	2.29	0.117	
CN1CC[C@H]2C[C@H]1C(=O)NCC(F)(F)COc1c(-c3cnc(CO)s3)ccc3ncc(nc13)N2 [a-01-22]	0.89	0.118	
CCCOCc1ncc(-c2ccc3ncc4nc3c2OCC(F)(F)CNC(=O)[C@@H]2C[C@H](CCN2C)N4)cn1 [a-01-23]	1.21	0.124	
Cc1ncc(-c2ccc3ncc4nc3c2OCCCNC(=O)[C@@H]2C[C@H](CCN2C)N4)cn1 [a-01-24]	2.48	0.14	
Cc1ncc(-c2ccc3ncc4nc3c2OCC2(CC2)CNC(=O)[C@@H]2C[C@H](CCN2C)N4)cn1 [a-01-25]	4.43	0.141	
CCCOCc1ncc(-c2ccc3ncc4nc3c2OCC(F)CNC(=O)[C@@H]2C[C@H](CCN2C)N4)cn1 (stereo partly drawn) [a-01-26]	1.41		0.142
CCCOCc1ncc(-c2ccc3ncc4nc3c2OCCCCCNC(=O)[C@@H]2C[C@H](CCN2C)N4)cn1 [a-01-27]	4.25	0.145	
Cc1ncc(-c2ccc3ncc4nc3c2OCC(F)(F)CNC(=O)[C@@H]2C[C@H](CCN2C)N4)cn1 [a-01-28]	4.04	0.149	
CN1CC[C@H]2C[C@H]1C(=O)NCC1(CCC1)COc1c(-c3cncnc3)ccc3ncc(nc13)N2 [a-01-29]	4.14	0.15	
CN1CC[C@H]2C[C@H]1C(=O)NCCCCOc1c(-c3cncnc3)ccc3ncc(nc13)N2 [a-01-30]	2.8	0.162	
CCCOCc1ncc(-c2ccc3ncc4nc3c2OCCC(F)CNC(=O)[C@@H]2C[C@H](CCN2C)N4)cn1 (stereo partly drawn) [a-01-31]	3.42	0.163	
CN1CC[C@H]2C[C@H]1C(=O)NCCCOc1c(-c3cnc(CO)nc3)ccc3ncc(nc13)N2 [a-01-32]	1.59	0.165	
Cc1ncc(-c2ccc3ncc4nc3c2OCC2(CC2)COC(=O)[C@@H]2C[C@H](CCN2C)N4)cn1 [a-01-33]	4.79	0.17	
CN1CCCOc2c(-c3cncnc3)ccc3ncc(nc23)N[C@H]2CCN(C)[C@@H](C2)C1=O [a-01-34]	4.19	0.177	
CCCOCc1ncc(-c2ccc3ncc4nc3c2OCCCNC(=O)[C@@H]2C[C@H](CCN2CC)N4)cn1 [a-01-35]	2.84	0.178	
CCCOCc1ncc(-c2ccc3ncc4nc3c2OCCC(C)NC(=O)[C@@H]2C[C@H](CCN2C)N4)cn1 (stereo partly drawn) [a-01-43]		0.237	
Cc1ncc(-c2ccc3ncc4cc3c2CCCCNC(=O)[C@@H]2C[C@H](CC(C)N2C)N4)cn1 (stereo partly drawn) [a-02-22]		0.324	
CCCOCc1ncc(-c2ccc3ncc4cc3c2OCCCNC(=O)[C@@H]2C[C@H](CCN2C)O4)cn1 [a-02-25, (3^2S,3^4S)-3^1-Methyl-1^6-(2-(propoxymethyl)pyrimidin-5-yl)-2,9-dioxa-5-aza-1 (3,5)-qunolina-3 (4,2)-piperidinacyclononaphan-4-one]		0.5	
